Source: patent publication US20240247207A1, “MALTOSIDE-, LACTOBIONAMIDE-, MONOGLUCOSIDE-, BRANCHED DIGLUCOSIDE-, SULFOBETAINE-, SULFATE- OR AMINOOXIDE-BASED PERFLUORINATED DETERGENTS AND THEIR USE IN MEMBRANE-PROTEINS APPLICATIONS” (AVIGNON UNIVERSITE, priority 2021, published 2024)
“Also recorded” adds a separate entry of the source.

Assays:
[1] = 100 μM POPC LUVs, detergent at CMC+ca. 5 mM, 25° C., light scattering at 90°
Method: Preparation of lipid vesicles. To prepare LUVs, POPC in powder form was weighed on a high-precision XP Delta Range microbalance (Mettler Toledo, Greifensee, Switzerland) and suspended in phosphate buffer (10 mM Na2HIPO4/NaH2PO4, 150 mM NaCl, pH 7.4). The solution was vortexed for 15 min at room temperature and extruded in a LiposoFast extruder (Avestin, Mannheim, Germany) with at least 35 extrusion steps through two stacked polycarbonate membranes with a pore diameter of 100 nm (Avestin). The hydrodynamic diameter of the LUVs was distributed around 120-130 nm, as shown by DLS.
Kinetics of vesicle solubilization. For vesicle solubilization kinetics, measurements were conducted by adding a high concentration (ca. 5 mM) of the compound of the invention above its CMC to 100 μM POPC LUVs in a 3 mm×3 mm quartz glass cuvette. […] Measurements were started immediately after mixing the vesicle suspension to monitor changes in light scattering intensity, Iscatter at an angle of 90° and at 25° C.
The solubilization of preformed large unilamellar vesicles (LUVs) composed of the singly unsaturated phospholipid 1-palmitoyl-2-oleyl-sn-glycero-3-phosphocholine (POPC) was investigated.

[2] = system: membrane-proteins from native E. coli membranes; assay: Extraction of membrane-proteins from native E. coli membranes, SDS-PAGE quantification; conditions: for membrane-protein extraction / solubilization efficiency (in words): CMC+1, 2, 5, 10 mM, at least 16 h at 20° C., yields relative to buffer without detergent
Method: Solubilization of Membrane-Proteins from native E. coli membranes. E. coli BL21(DE3) cells were transformed with an empty pET-24 vector and selected by kanamycin resistance. After incubation in 400 mL lysogeny broth overnight at 37° C. under constant agitation (150 rpm), cells were harvested by centrifugation and washed twice with saline (154 mM NaCl). Cell pellets were resuspended in ice-cold buffer (100 mM Na2CO3, pH 11.5) and subjected to ultrasonication in an S-250A sonifier (Branson Ultrasonics, Danbury, USA) twice for 10 min each. To remove cell debris, the lysate was centrifuged at 4° C. for 20 min at 7149 rpm (3000 g). The supernatant was ultracentrifuged at 4° C. for 1 h at 31 400 rpm (100,000 g) to separate membrane fragments from soluble and peripheral proteins. Membrane pellets were washed and suspended in working buffer, ultracentrifuged again at 4° C. for 1 h at 31 400 rpm (100,000 g) to remove any residual soluble or peripheral proteins. The resulting pellets were resuspended in buffer (50 mM Tris, 200 mM NaCl, pH 7.4) to a final concentration of 100 mg wet-weight pellet per 1 mL of buffer and mixed in a 1:1 volume ratio with stock solutions of the compounds of the invention in buffer. All samples were incubated for at least 16 h at 20° C. under constant, gentle agitation (500 rpm) and subsequently ultracentrifuged at 4° C. for 1 h at 51 000 rpm (100,000 g). The solubilized supernatant containing micelles was analyzed using SDS-PAGE.
Sodium dodecyl sulphate polyacrylamide gel electrophoresis (SDS-PAGE). The solubilization efficiency of compound 5a, F6OM, F6OPC and DDM on biological membranes was assessed by SDS-PAGE using a NuPAGE Bis-Tris system (Life Technologies, Carlsbad, USA) with a polyacrylamide gradient of 4-12%. 14-μL samples were mixed with 5 μL 4×SDS sample buffer (106 mM Tris HCl, 141 mM Tris base, 2% (w v) SDS, 10% (w v) glycerol, 0.51 mM EDTA, 0.22 mM SERVA Blue G250, and 0.175 mM Phenol Red, pH 8.5) and 1 μL 1 M dithiothreitol (DTT) and boiled at 95° C. for 10 min. 12 μL of each sample was loaded on a ready-to-use NuPAGE. As reference, a standard-weight marker (Roti-Mark 10-150, Carl Roth, Karlsruhe, Germany) was used, and the working buffer was used as negative control. […] For quantification of solubilization efficiencies, gels were photographed with a C4000Z camera (Olympus, Tokyo, Japan), and protein bands were analyzed with ImageJ software.
Results. The intensities (i.e., pixel counts) of SDS-PAGE band patterns (FIG. 2) were analyzed to provide the overall protein-extraction yields which were expressed relative to the buffer without any detergent.

[3] = SFT for CMC determination (surface tension, Wilhelmy plate technique); type: physicochemical; conditions: air/water interface, (20.0±0.5)° C.
Method: SFT for CMC determination. The surface activity of the compounds of the invention in solution at the air/water interface was determined using a K100 tensiometer (Kruss, Hamburg, Germany). Surface tensions were determined by dilution of stock solutions (13 g/L for compound 5a (cyF6H3Malt), 4.6 g/L for compound 5b (cyF6H4Malt), 2 g/L for compound 5c (cyF6H5Malt), 10 g/L for compound 8a (isoF5H3Malt), 1.7 g/L for compound 8c (isoF5H5Malt) and 0.4 g/L for compound 8b (isoF7H3Malt), ˜4×CMC) using the Wilhelmy plate technique. In a typical experiment, 13 concentration steps were prepared from solutions equilibrated overnight before measurement. All measurements were performed at (20.0±0.5)° C. until standard deviation reach ±0.05 or during at least 30 min.

[4] = literature value; cited from earlier work

Row | Structure (SMILES) | time to complete solubilization of LUVs [1] [h] | membrane-protein extraction / solubilization efficiency (in words) [2] | solubilization efficiency at low concentrations, compared with DDM (in words) ([2]; low concentrations, CMC+1-5 mM) | CMC (critical micellar concentration) [3] [mM] | γCMC (surface tension at the CMC) [3] [mN/m] | CMC [4] [mM]
1 | OC[C@H]1O[C@H](O[C@H]2[C@H](O)[C@@H](O)[C@H](OCCCC3(F)C(F)(F)C(F)(F)C(F)(F)C(F)(F)C3(F)F)O[C@@H]2CO)[C@H](O)[C@@H](O)[C@@H]1O [Compound 5a, 3-(perfluorocyclohexyl)-propoxy-4-O—(α-D-glucopyranosyl)-β-D-glucopyranoside] | ~2 | efficiently extracted membrane-proteins; also recorded: higher membrane-protein extraction yield than F6OM and F6OPC | better solubilization efficiencies than DDM | 3.47 | 23.9 | 
2 | OC[C@H]1O[C@H](O[C@H]2[C@H](O)[C@@H](O)[C@H](OCCCCC3(F)C(F)(F)C(F)(F)C(F)(F)C(F)(F)C3(F)F)O[C@@H]2CO)[C@H](O)[C@@H](O)[C@@H]1O [Compound 5b, 4-(perfluorocyclohexyl)-butoxy-4-O—(α-D-glucopyranosyl)-β-D-glucopyranoside] |  |  |  | 2.29 | 22.7 | 
3 | OC[C@H]1O[C@H](O[C@H]2[C@H](O)[C@@H](O)[C@H](OCCCCCC3(F)C(F)(F)C(F)(F)C(F)(F)C(F)(F)C3(F)F)O[C@@H]2CO)[C@H](O)[C@@H](O)[C@@H]1O [Compound 5c, 5-(perfluorocyclohexyl)-pentoxy-4-O—(α-D-glucopyranosyl)-β-D-glucopyranoside] |  |  |  | 0.70 | 23.16 | 
4 | OC[C@H]1O[C@H](O[C@H]2[C@H](O)[C@@H](O)[C@H](OCCCC(F)(F)C(F)(F)C(F)(C(F)(F)F)C(F)(F)F)O[C@@H]2CO)[C@H](O)[C@@H](O)[C@@H]1O [Compound 8a, 3-(perfluoroisopentyl)-propoxy-4-O—(α-D-glucopyranosyl)-β-D-glucopyranoside] |  |  |  | 2.66 | 22.5 | 
5 | OC[C@H]1O[C@H](O[C@H]2[C@H](O)[C@@H](O)[C@H](OCCCC(F)(F)C(F)(F)C(F)(F)C(F)(F)C(F)(C(F)(F)F)C(F)(F)F)O[C@@H]2CO)[C@H](O)[C@@H](O)[C@@H]1O [Compound 8b, 3-(perfluoroisoheptyl)-propoxy-4-O—(α-D-glucopyranosyl)-β-D-glucopyranoside] |  |  |  | 0.11 | 17.4 | 
6 | OC[C@H]1O[C@H](O[C@H]2[C@H](O)[C@@H](O)[C@H](OCCCCCC(F)(F)C(F)(F)C(F)(C(F)(F)F)C(F)(F)F)O[C@@H]2CO)[C@H](O)[C@@H](O)[C@@H]1O [Compound 8c, 5-(perfluoroisopentyl)-pentoxy-4-O—(α-D-glucopyranosyl)-β-D-glucopyranoside] |  |  |  | 0.53 | 22.1 | 
7 | O=C(NCCCC1(F)C(F)(F)C(F)(F)C(F)(F)C(F)(F)C1(F)F)C(O)[C@H](O)[C@H](O[C@@H]1OC(CO)[C@H](O)[C@H](O)C1O)C(O)CO (stereo partly drawn) [Compound 12, 3-(perfluorocyclohexyl)-N-propane Octahydroxy lactobionamide] |  |  |  | 6.32 | 24.4 | 
8 | C[N+](C)(CCCCCC1(F)C(F)(F)C(F)(F)C(F)(F)C(F)(F)C1(F)F)CCCS(=O)(=O)[O-] [Compound 17, 3-(dimethyl(5-(perfluorocyclohexyl)pentyl)ammonio)propane-1-sulfonate] |  |  |  | 3.20 | 23.7 | 
9 | OC[C@H]1O[C@H](O[C@H]2[C@H](O)[C@@H](O)[C@H](OCCC(F)(F)C(F)(F)C(F)(F)C(F)(F)C(F)(F)C(F)(F)F)O[C@@H]2CO)[C@H](O)[C@@H](O)[C@@H]1O [Compound F6OM, (1H, 1H, 2H, 2H-Perfluorooctyl)-β-D-Maltopyranoside, reference compound] |  | very limited solubilization |  |  |  | 0.7
10 | C[N+](C)(C)CCOP(=O)([O-])OCCC(F)(F)C(F)(F)C(F)(F)C(F)(F)C(F)(F)C(F)(F)F [Compound F6OPC, (1H, 1H, 2H, 2H-Perfluorooctyl)phosphocholine, reference compound] |  | very limited solubilization |  |  |  | 2.9
11 | CCCCCCCCCCCCO[C@@H]1O[C@H](CO)[C@@H](O[C@H]2O[C@H](CO)[C@@H](O)[C@H](O)[C@H]2O)[C@H](O)[C@H]1O [DDM, n-dodecyl-β-D-maltoside] |  |  |  |  |  | 0.17
